Our source for the IC50 values is patent US10239876B2, “Triaza-spirodecanones as DDR1 inhibitors” (Hoffmann La-Roche Inc., priority 2015, dated 2019).

Each structure is given as a SMILES string. pIC50: −log10 of the molar value.

For this assay, the target named is intracellular domain of the DDR1 protein (Homo sapiens (Human), UniProt Q08345). In words: In vitro binding competition assay for DDR1 (Eu-labeled anti-GST antibody / tracer FRET). As to conditions: recombinant GST-tagged protein, one hour incubation at room temperature.
Sequence of intracellular domain of the DDR1 protein (Q08345 439-913): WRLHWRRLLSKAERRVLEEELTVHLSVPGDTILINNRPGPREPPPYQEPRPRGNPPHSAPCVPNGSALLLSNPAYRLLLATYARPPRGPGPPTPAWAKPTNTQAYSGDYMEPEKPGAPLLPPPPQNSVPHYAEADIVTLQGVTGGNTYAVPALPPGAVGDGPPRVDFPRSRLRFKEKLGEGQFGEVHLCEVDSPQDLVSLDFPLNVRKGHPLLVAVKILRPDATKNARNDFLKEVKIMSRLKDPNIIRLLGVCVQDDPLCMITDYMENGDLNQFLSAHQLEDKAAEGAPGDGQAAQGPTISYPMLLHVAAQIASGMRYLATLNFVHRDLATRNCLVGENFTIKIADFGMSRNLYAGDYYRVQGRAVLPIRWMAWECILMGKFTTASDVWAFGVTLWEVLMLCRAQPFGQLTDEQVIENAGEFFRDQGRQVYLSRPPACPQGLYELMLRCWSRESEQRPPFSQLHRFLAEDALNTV

From the text: This assay is based on the intracellular domain of the DDR1 protein which contains the kinase active site. The recombinant protein additionally carries a GST-tag that can be recognized by an Eu-labeled anti-GST antibody. […] Excitation energy absorbed by the Europium complex (350 nm flash light or pulsed laser) is transferred to a suitable fluorescent dye, if it is in close proximity. Compounds binding competitively with the tracer molecule will displace the bound tracer molecules and reduce the FRET signal in a dose dependent manner. Due to the long lifetime of the Eu excited state, the emission of the donor and the acceptor can be measured in time-gated mode such that most of the intrinsic fluorescence contributions have already decayed. […] This sensitive detection method enables protein concentrations below 20 nM.
Protein, tracer and labeled antibody were obtained from commercial sources. […] Dose response curves were generated from 16 compound dilutions in DMSO as solvent compound dilutions, a solution containing protein and labeled antibody, and a solution containing the tracer which is added in the last step. The fluorescence of donor and acceptor were then measured after one hour incubation at room temperature. Every assay run was quality-controlled with dose response curves for two reference compounds.

In the case of `O=C(CN1CN(c2ccccc2)C2(CCN(C(=O)c3ccc4[nH]ncc4n3)CC2)C1=O)NCC(F)(F)F` [Example 91, 2-(4-Oxo-1-phenyl-8-(1H-pyrazolo[4,3-b]pyridine-5-carbonyl)-1,3,8-triazaspiro[4.5]decan-3-yl)-N-(2,2,2-trifluoroethyl)acetamide], the negative logarithm of the IC50 (pIC50) is 7.71.

`O=C(CN1CN(c2ccccc2)C2(CCN(C(=O)c3ccc4[nH]ncc4c3)CC2)C1=O)NCC(F)(F)F` [Example 7, 2-(8-(1H-Indazole-5-carbonyl)-4-oxo-1-phenyl-1,3,8-triazaspiro[4.5]decan-3-yl)-N-(2,2,2-trifluoroethyl)acetamide]: the negative logarithm of the IC50 (pIC50) was 7.81.
